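GI50 marks 50% less growth. TGI: concentration producing complete growth inhibition.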
Columns and labels:
Assay in all cases: NCI anticancer screen, dose series, 384-well format
OVCAR-8 ovarian = system: OVCAR-8 ovarian
NCI/ADR-RES ovarian = system: NCI/ADR-RES ovarian
SK-MEL-5 melanoma = system: SK-MEL-5 melanoma
EKVX NSCLC = system: EKVX NSCLC
M14 melanoma = system: M14 melanoma
SK-OV-3 ovarian = system: SK-OV-3 ovarian
UO-31 renal = system: UO-31 renal
HS 578T breast = system: HS 578T breast
COLO 205 colon = system: COLO 205 colon
SF-539 CNS = system: SF-539 CNS
UACC-62 melanoma = system: UACC-62 melanoma
MALME-3M melanoma = system: MALME-3M melanoma
SK-MEL-28 melanoma = system: SK-MEL-28 melanoma
U251 glioblastoma = system: U251 glioblastoma
MOLT-4 leukemia = system: MOLT-4 leukemia
786-0 renal = system: 786-0 renal
BT-549 breast = system: BT-549 breast
HT29 colon = system: HT29 colon
MDA-MB-435 melanoma = system: MDA-MB-435 melanoma
MDA-MB-231 breast = system: MDA-MB-231 breast
NCI-H23 lung = system: NCI-H23 lung
NCI-H226 lung = system: NCI-H226 lung
PC-3 prostate = system: PC-3 prostate
MCF7 breast = system: MCF7 breast
SW-620 colon = system: SW-620 colon
NCI-H522 lung = system: NCI-H522 lung
DU-145 prostate = system: DU-145 prostate
KM12 colon = system: KM12 colon
RPMI-8226 leukemia = system: RPMI-8226 leukemia
SNB-19 CNS = system: SNB-19 CNS
TK-10 renal = system: TK-10 renal
MDA-MB-468 breast = system: MDA-MB-468 breast
NCI-H460 NSCLC = system: NCI-H460 NSCLC
HCT-15 colon = system: HCT-15 colon
ACHN renal = system: ACHN renal
HCC-2998 colon = system: HCC-2998 colon
SF-295 CNS = system: SF-295 CNS
RXF 393 renal = system: RXF 393 renal
OVCAR-4 ovarian = system: OVCAR-4 ovarian
UACC-257 melanoma = system: UACC-257 melanoma
HL-60(TB) leukemia = system: HL-60(TB) leukemia
OVCAR-3 ovarian = system: OVCAR-3 ovarian
NCI-H322M lung = system: NCI-H322M lung
SN12C renal = system: SN12C renal
LOX IMVI melanoma = system: LOX IMVI melanoma
T-47D breast = system: T-47D breast
K-562 leukemia = system: K-562 leukemia
HOP-62 NSCLC = system: HOP-62 NSCLC
A498 renal = system: A498 renal
SNB-75 CNS = system: SNB-75 CNS
SR leukemia = system: SR leukemia
A549 NSCLC = system: A549 NSCLC
SF-268 CNS = system: SF-268 CNS

With `CC(C)c1cc(CNc2nc(Nc3cc(C4CC4)[nH]n3)cc(N3CCN(C)CC3)n2)on1` the GI50 (OVCAR-8 ovarian) was 165 nM, the TGI (OVCAR-8 ovarian) was 1150 nM and the GI50 (NCI/ADR-RES ovarian) was 2670 nM. For the same compound, the TGI (NCI/ADR-RES ovarian) was 14100 nM, the GI50 (SK-MEL-5 melanoma) was 258 nM and the TGI (SK-MEL-5 melanoma) was 1730 nM. The GI50 (EKVX NSCLC) was 28.8 nM, the TGI (EKVX NSCLC) was 359 nM and the GI50 (M14 melanoma) was 16 nM. The TGI (M14 melanoma) was 1740 nM, the GI50 (SK-OV-3 ovarian) was 69.6 nM and the TGI (SK-OV-3 ovarian) was 12700 nM. The GI50 (UO-31 renal) was 221 nM, the TGI (UO-31 renal) was 1270 nM and the GI50 (HS 578T breast) was 42.3 nM. The TGI (HS 578T breast) was 204 nM, the GI50 (COLO 205 colon) was < 10 nM and the TGI (COLO 205 colon) was 21.1 nM. It also gave a GI50 (SF-539 CNS) of 31.1 nM, a TGI (SF-539 CNS) of 228 nM and a GI50 (UACC-62 melanoma) of 47.3 nM. For the same compound, the TGI (UACC-62 melanoma) was 1590 nM, the GI50 (MALME-3M melanoma) was 45.5 nM and the TGI (MALME-3M melanoma) was 1850 nM. The GI50 (SK-MEL-28 melanoma) was 121 nM, the TGI (SK-MEL-28 melanoma) was 1390 nM and the GI50 (U251 glioblastoma) was 209 nM. The TGI (U251 glioblastoma) was 10500 nM, the GI50 (MOLT-4 leukemia) was < 10 nM and the TGI (MOLT-4 leukemia) was 16.9 nM. It also gave a GI50 ([…]-0 renal) of 135 nM, a TGI (786-0 renal) of 904 nM and a GI50 (BT-549 breast) of 34.1 nM. The TGI (BT-549 breast) was 197 nM, the GI50 (HT29 colon) was 21.7 nM and the TGI (HT29 colon) was 1480 nM. The GI50 (MDA-MB-435 melanoma) was 209 nM, the TGI (MDA-MB-435 melanoma) was 2420 nM and the GI50 (MDA-MB-231 breast) was 37.8 nM. It also gave a TGI (MDA-MB-231 breast) of 1490 nM, a GI50 (NCI-H23 lung) of 14.5 nM and a TGI (NCI-H23 lung) of 189 nM. For the same compound, the GI50 (NCI-H226 lung) was 17.4 nM, the TGI (NCI-H226 lung) was 132 nM and the GI50 (PC-3 prostate) was 81.5 nM. For the same compound, the TGI (PC-3 prostate) was 2610 nM, the GI50 (MCF7 breast) was < 10 nM and the TGI (MCF7 breast) was 10900 nM. For the same compound, the GI50 (SW-620 colon) was 23.9 nM, the TGI (SW-620 colon) was 1190 nM and the GI50 (NCI-H522 lung) was 14.9 nM. For the same compound, the TGI (NCI-H522 lung) was 598 nM, the GI50 (DU-145 prostate) was 120 nM and the TGI (DU-145 prostate) was 769 nM. For the same compound, the GI50 (KM12 colon) was < 10 nM, the TGI (KM12 colon) was 63.8 nM and the GI50 (RPMI-8226 leukemia) was 19.6 nM. The TGI (RPMI-8226 leukemia) was 188 nM, the GI50 (SNB-19 CNS) was 136 nM and the TGI (SNB-19 CNS) was 11700 nM. It also gave a GI50 (TK-10 renal) of 137 nM, a TGI (TK-10 renal) of 587 nM and a GI50 (MDA-MB-468 breast) of 14.1 nM. For the same compound, the TGI (MDA-MB-468 breast) was 42.6 nM, the GI50 (NCI-H460 NSCLC) was < 10 nM and the TGI (NCI-H460 NSCLC) was 141 nM. It also gave a GI50 (HCT-15 colon) of 246 nM, a TGI (HCT-15 colon) of 2930 nM and a GI50 (ACHN renal) of 225 nM. For the same compound, the TGI (ACHN renal) was 13400 nM, the GI50 (HCC-2998 colon) was 203 nM and the TGI (HCC-2998 colon) was 1980 nM. The GI50 (SF-295 CNS) was 63 nM, the TGI (SF-295 CNS) was 1050 nM and the GI50 (RXF 393 renal) was 60.4 nM. For the same compound, the TGI (RXF 393 renal) was 248 nM, the GI50 (OVCAR-4 ovarian) was 1160 nM and the TGI (OVCAR-4 ovarian) was 4540 nM. The GI50 (UACC-257 melanoma) was 1230 nM, the TGI (UACC-257 melanoma) was 2730 nM and the GI50 (HL-60(TB) leukemia) was < 10 nM. For the same compound, the GI50 (OVCAR-3 ovarian) was 31.6 nM, the TGI (OVCAR-3 ovarian) was 400 nM and the GI50 (NCI-H322M lung) was 238 nM. For the same compound, the TGI (NCI-H322M lung) was 1280 nM, the GI50 (SN12C renal) was 22.4 nM and the TGI (SN12C renal) was 207 nM. It also gave a GI50 (LOX IMVI melanoma) of 29.8 nM, a TGI (LOX IMVI melanoma) of 164 nM and a GI50 (T-47D breast) of 267 nM. The TGI (T-47D breast) was 17300 nM, the GI50 (K-562 leukemia) was < 10 nM and the TGI (K-562 leukemia) was 17.8 nM. It also gave a GI50 (HOP-62 NSCLC) of 69.2 nM, a TGI (HOP-62 NSCLC) of 306 nM and a GI50 (A498 renal) of 189 nM. It also gave a TGI (A498 renal) of 12400 nM, a GI50 (SNB-75 CNS) of 13.6 nM and a TGI (SNB-75 CNS) of 165 nM. The GI50 (SR leukemia) was < 10 nM, the GI50 (A549 NSCLC) was 20.1 nM and the TGI (A549 NSCLC) was 6830 nM. It also gave a GI50 (SF-268 CNS) of 30.7 nM and a TGI (SF-268 CNS) of 260 nM.
